Results as given in ChEMBL document CHEMBL1932964, “Lead optimisation of pyrazoles as novel FPR1 antagonists” (Bioorg Med Chem Lett, 2012).
In brackets after ≈: the same amount, converted by molar mass. Each block holds one compound with its values, some of them ahead of it.

Experiments:
fMet-Leu-Phe receptor [1] = target: T1, fMet-Leu-Phe receptor (Homo sapiens, UniProt P21462); experiment: Antagonist activity at human recombinant FPR1 in expressed in HEK293 cells assessed as inhibition of FMLP-stimulated intracellular calcium mobilisation after 1 hr by FLIPR assay; format: functional, cell-based
T1 sequence (P21462 whole entry): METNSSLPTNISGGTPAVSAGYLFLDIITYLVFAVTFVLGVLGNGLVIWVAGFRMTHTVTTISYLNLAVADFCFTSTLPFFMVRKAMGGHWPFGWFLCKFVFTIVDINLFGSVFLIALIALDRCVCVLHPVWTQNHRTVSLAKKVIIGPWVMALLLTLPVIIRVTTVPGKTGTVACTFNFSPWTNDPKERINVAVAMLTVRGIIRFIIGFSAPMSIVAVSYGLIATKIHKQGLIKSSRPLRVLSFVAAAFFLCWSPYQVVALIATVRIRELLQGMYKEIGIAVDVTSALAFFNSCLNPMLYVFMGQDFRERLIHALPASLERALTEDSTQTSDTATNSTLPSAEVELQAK

[2] = Intrinsic clearance in Sprague-Dawley rat hepatocytes assessed per 10^6 cells measured after 90 mins
[3] = target: T2, fMet-Leu-Phe receptor (Homo sapiens) (UniProt P21462); experiment: Antagonist activity at human recombinant FPR1 in expressed in HEK293 cells assessed as inhibition of FMLP-stimulated intracellular calcium mobilisation at 30 uM after 1 hr by FLIPR assay; format: functional, cell-based
T2 sequence (whole entry): T1 sequence (P21462 whole entry)

[4] = Intrinsic clearance in human liver microsomes measured after 45 mins post NADPH addition
[5] = Intrinsic clearance in human hepatocytes assessed per 10^6 cells measured after 90 mins
[6] = […] pKa of the compound; format: physicochemical
[7] = Thermodynamic solubility of compound by shake-flask technique; format: physicochemical; conditions: read-out: Therm_solubility
Plasma [8] = experiment: (§1) Fraction unbound in human plasma; format: ADME, cell-free
Plasma [9] = experiment: (§2) Fraction unbound in Sprague-Dawley rat plasma; format: ADME, cell-free
[10] = Ratio of drug level in blood to plasma in Sprague-Dawley rat; format: ADME
[11] = target: T3, Solute carrier organic anion transporter family member 1B1 (Homo sapiens, UniProt Q9Y6L6); experiment: Inhibition of OATP1B1 transporter
T3 sequence (Q9Y6L6 whole entry): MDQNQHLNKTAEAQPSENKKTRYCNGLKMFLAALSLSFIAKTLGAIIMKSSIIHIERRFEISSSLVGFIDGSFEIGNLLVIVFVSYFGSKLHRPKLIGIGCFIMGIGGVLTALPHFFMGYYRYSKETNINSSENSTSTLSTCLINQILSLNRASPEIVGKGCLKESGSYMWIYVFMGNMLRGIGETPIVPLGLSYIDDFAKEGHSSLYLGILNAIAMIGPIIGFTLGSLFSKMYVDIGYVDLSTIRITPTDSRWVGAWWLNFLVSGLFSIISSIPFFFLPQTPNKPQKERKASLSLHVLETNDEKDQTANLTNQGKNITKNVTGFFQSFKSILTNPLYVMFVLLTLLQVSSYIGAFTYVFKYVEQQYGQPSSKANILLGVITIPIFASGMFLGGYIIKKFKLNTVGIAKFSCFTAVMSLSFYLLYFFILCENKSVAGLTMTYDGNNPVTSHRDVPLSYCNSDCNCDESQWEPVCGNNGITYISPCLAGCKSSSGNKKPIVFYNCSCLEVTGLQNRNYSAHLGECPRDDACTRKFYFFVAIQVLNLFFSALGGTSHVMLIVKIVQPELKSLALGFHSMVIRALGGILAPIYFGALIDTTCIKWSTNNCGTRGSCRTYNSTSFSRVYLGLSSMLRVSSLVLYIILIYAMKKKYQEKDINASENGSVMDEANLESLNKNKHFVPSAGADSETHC

Liver = experiment: Intrinsic clearance in rat liver microsomes assessed as media loss of parent compound per million cells
[12] = Clearance in Sprague-Dawley rat at 2 mg/kg, iv; conditions: in vivo
[13] = Half life in Sprague-Dawley rat at 2 mg/kg, iv; conditions: in vivo
[14] = Volume of distribution at steady state in Sprague-Dawley rat at 2 mg/kg, iv; format: ADME, organism-based; set-up: dose 2 mg/kg, route intravenous; conditions: in vivo, read-out: Vdss
[15] = Oral bioavailability in Sprague-Dawley rat at 2 mg/kg; format: ADME, organism-based; conditions: in vivo
[16] = as §2; format: ADME, cell-free; conditions: Sprague-Dawley
[17] = Distribution coefficient, log D of compound; format: physicochemical; conditions: octanol/water
[18] = as §1; format: ADME, cell-free
fMet-Leu-Phe receptor [19] = target: T1, fMet-Leu-Phe receptor; experiment: Antagonist activity at FPR1 in human neutrophils assessed as AB/fMLF-stimulated upregulation of CD11b expression preincubated for 30 mins before AB/FMLF challenge measured after 50 mins using FITC staining by flow cytometry; format: functional; conditions: read-out: pA2 (converted)
THP-1 = experiment: Cytotoxicity against human THP1 cells; format: cell-based
Cytochrome P450 1A2 = target: T4, Cytochrome P450 1A2 (Homo sapiens, UniProt P05177); experiment: Inhibition of CYP1A2; format: ADME
T4 sequence (P05177 whole entry): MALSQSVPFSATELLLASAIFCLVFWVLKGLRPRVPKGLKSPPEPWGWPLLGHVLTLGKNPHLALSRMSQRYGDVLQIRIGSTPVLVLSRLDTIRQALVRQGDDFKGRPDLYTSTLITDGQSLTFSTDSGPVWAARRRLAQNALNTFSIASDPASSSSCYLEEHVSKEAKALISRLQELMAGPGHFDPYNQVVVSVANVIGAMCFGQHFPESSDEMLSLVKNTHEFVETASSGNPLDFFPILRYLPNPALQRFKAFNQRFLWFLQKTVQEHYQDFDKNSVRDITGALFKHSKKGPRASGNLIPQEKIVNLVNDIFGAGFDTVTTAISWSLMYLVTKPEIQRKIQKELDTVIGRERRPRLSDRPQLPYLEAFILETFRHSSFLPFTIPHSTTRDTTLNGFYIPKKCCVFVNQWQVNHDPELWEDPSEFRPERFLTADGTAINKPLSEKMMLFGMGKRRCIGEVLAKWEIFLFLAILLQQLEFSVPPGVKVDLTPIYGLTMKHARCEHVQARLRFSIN

Cytochrome P450 2C9 = Cytochrome P450 2C9 (Homo sapiens, UniProt P11712); experiment: Inhibition of CYP2C9; format: ADME
Chain of Cytochrome P450 2C9 (P11712 whole entry): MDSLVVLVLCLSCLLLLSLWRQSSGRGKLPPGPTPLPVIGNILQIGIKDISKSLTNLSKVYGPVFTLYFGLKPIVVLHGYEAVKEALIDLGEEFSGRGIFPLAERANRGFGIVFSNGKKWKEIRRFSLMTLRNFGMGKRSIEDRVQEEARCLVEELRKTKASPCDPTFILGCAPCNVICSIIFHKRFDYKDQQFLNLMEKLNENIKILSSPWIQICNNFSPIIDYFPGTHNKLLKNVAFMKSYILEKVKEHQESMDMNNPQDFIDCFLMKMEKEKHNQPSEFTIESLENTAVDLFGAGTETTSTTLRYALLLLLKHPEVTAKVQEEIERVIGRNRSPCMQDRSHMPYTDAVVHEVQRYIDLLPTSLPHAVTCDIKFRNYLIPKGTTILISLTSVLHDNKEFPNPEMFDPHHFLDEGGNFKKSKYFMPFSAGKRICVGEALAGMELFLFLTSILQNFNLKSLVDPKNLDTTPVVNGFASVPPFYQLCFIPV

Cytochrome P450 2C19 = Cytochrome P450 2C19 (Homo sapiens, UniProt P33261); experiment: Inhibition of CYP2C19; format: ADME
Chain of Cytochrome P450 2C19 (P33261 whole entry): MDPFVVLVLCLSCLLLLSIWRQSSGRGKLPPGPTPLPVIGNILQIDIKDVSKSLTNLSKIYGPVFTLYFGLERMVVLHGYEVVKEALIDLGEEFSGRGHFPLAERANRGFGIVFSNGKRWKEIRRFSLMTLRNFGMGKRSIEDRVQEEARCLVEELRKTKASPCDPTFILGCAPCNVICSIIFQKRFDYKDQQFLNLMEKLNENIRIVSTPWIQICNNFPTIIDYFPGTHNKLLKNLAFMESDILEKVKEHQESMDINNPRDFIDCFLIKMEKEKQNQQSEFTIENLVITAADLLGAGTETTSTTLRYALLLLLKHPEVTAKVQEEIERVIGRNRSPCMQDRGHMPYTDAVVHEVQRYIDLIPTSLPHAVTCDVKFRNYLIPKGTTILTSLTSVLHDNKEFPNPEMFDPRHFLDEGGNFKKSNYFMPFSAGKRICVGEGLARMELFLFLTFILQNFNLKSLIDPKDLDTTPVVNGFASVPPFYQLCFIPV

Cytochrome P450 2D6 = Cytochrome P450 2D6 (Homo sapiens, UniProt P10635); experiment: Inhibition of CYP2D6; format: ADME
Chain of Cytochrome P450 2D6 (P10635 whole entry): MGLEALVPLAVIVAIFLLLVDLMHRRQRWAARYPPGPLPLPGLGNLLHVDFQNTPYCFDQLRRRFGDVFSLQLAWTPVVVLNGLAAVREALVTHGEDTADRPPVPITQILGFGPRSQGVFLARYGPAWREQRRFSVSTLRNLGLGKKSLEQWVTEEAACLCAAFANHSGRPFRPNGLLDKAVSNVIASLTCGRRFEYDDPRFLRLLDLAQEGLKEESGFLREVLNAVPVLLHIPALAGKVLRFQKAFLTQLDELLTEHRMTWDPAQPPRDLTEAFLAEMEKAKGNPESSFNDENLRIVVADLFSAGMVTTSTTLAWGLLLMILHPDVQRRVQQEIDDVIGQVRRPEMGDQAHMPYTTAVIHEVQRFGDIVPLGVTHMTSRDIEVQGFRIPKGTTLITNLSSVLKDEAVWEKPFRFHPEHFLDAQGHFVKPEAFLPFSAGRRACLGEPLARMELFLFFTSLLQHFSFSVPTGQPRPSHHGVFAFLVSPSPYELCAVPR

Cytochrome P450 3A4 = Cytochrome P450 3A4 (Homo sapiens, UniProt P08684); experiment: Inhibition of CYP3A4; format: ADME
Chain of Cytochrome P450 3A4 (P08684 whole entry): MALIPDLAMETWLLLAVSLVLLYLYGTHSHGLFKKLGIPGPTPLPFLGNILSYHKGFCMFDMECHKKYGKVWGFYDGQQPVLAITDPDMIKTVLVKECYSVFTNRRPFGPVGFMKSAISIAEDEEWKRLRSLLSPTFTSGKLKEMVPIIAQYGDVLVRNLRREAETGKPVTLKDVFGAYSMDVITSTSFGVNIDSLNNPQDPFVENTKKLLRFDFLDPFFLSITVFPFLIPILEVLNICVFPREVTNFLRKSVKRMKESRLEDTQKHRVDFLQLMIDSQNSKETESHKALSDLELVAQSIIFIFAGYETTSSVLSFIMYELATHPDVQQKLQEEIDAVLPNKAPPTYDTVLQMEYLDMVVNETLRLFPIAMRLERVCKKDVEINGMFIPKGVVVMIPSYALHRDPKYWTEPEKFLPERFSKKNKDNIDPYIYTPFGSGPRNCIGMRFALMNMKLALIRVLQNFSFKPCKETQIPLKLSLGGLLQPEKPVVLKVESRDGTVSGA

[20] = Time dependent inhibition of CYP; format: ADME

- IC50 (fMet-Leu-Phe receptor [1]): 200 nM
- hepatocyte CLint at […] [2]: 17 µL/min/1e6 cells
SMILES: Cc1ccc(S(=O)(=O)Nc2c(C(=O)N[C@@H](C)C(C)(C)C)c(C)nn2C2CCC2)cc1

- inhibition [3]: < 30%
SMILES: Cc1ccc(S(=O)(=O)Nc2c(C(=O)N[C@@H](C)C(C)(C)C)c(C)nn2C2CCN(C)CC2)cc1

- IC50 (fMet-Leu-Phe receptor [1]): 79.4 nM
- hepatocyte CLint at […] [2]: 8 µL/min/1e6 cells
- CLH (Liver): 12 µL/min
SMILES: Cc1ccc(S(=O)(=O)Nc2c(C(=O)N[C@@H](C)C(C)(C)C)c(C)nn2C2CCCC2)cc1

- IC50 (fMet-Leu-Phe receptor [1]): 10000 nM
SMILES: Cc1ccc(S(=O)(=O)Nc2c(C(=O)N[C@@H](C)C(C)(C)C)c(C)nn2C2CCS(=O)(=O)CC2)cc1

- IC50 (fMet-Leu-Phe receptor [1]): 3.98 nM
- logD [17]: 1.3
- microsomal CLint at 0.75 h [4]: 8 µL/min/mg
- hepatocyte CLint at […] [5]: 3.6 µL/min/1e6 cells
- hepatocyte CLint at […] [2]: 3 µL/min/1e6 cells
- fraction unbound [18]: 0.073
- fraction unbound [16]: 0.1
- clearance [12]: 5.5 mL/min/kg
- half-life [13]: 2.8 h
- Vd [14]: 1.2 L/kg
- bioavailability [15]: 80%
- Kb (fMet-Leu-Phe receptor [19]): 20 nM
- IC50 (Cytochrome P450 1A2): > 10000 nM
- IC50 (Cytochrome P450 2C9): > 10000 nM
- IC50 (Cytochrome P450 2C19): > 10000 nM
- IC50 (Cytochrome P450 2D6): > 10000 nM
- IC50 (Cytochrome P450 3A4): > 10000 nM
- pIC50 [20]: < 5
SMILES: CO[C@H]1CC[C@@H](n2nc(C)c(C(=O)N[C@@H](C)C(C)(C)C)c2NS(=O)(=O)c2ccc(C)cc2)CC1
- IC50 (THP-1): > 50100 nM

The remaining lines, values behind:

SMILES: Cc1ccc(S(=O)(=O)Nc2c(C(=O)N[C@@H](C)C(C)(C)C)c(C)nn2C2CCN(CC(F)(F)F)CC2)cc1
- IC50 (fMet-Leu-Phe receptor [1]): 3160 nM

SMILES: Cc1ccc(S(=O)(=O)Nc2c(C(=O)N[C@@H](C)C(C)(C)C)c(C)nn2C(C)(C)C)cc1
- IC50 (fMet-Leu-Phe receptor [1]): 1580 nM
- hepatocyte CLint at […] [2]: 53 µL/min/1e6 cells

SMILES: COCC(C)n1nc(C)c(C(=O)N[C@@H](C)C(C)(C)C)c1NS(=O)(=O)c1ccc(C)cc1 (stereo not given in full)
- IC50 (fMet-Leu-Phe receptor [1]): 2510 nM
- hepatocyte CLint at […] [2]: < 3 µL/min/1e6 cells

SMILES: Cc1ccc(S(=O)(=O)Nc2c(C(=O)N[C@@H](C)C(C)(C)C)c(C)nn2-c2ccccc2)cc1
- microsomal CLint at 0.75 h [4]: 40 µL/min/mg
- hepatocyte CLint at […] [5]: 7 µL/min/1e6 cells
- pKa [6]: 3.9
- solubility thermodynamic [7]: 1030 µM (≈ 468 µg/mL)
- Fu (Plasma [8]): 4.2%
- Fu (Plasma [9]): 1.1%
- blood plasma ratio [10]: 0.7
- IC50 [11]: 7940 nM
- CLH (Liver): 412 µL/min
- clearance [12]: 42 mL/min/kg
- half-life [13]: 0.25 h
- Vd [14]: 0.45 L/kg
- bioavailability [15]: 19%

SMILES: Cc1ccc(S(=O)(=O)Nc2c(C(=O)N[C@@H](C)C(C)(C)C)c(C)nn2C(C)C)cc1
- IC50 (fMet-Leu-Phe receptor [1]): 1000 nM
- hepatocyte CLint at […] [2]: < 6 µL/min/1e6 cells
- fraction unbound [16]: 0.04
- CLH (Liver): 7.8 µL/min
- clearance [12]: 4 mL/min/kg

SMILES: CCC(CC)NC(=O)c1c(C)nn(C(C)C)c1NS(=O)(=O)c1ccc(C)cc1
- IC50 (fMet-Leu-Phe receptor [1]): 25100 nM
